In patent US20160136130A1, “Oral Ultraviolet Resistance Enhancer” (KAO CORPORATION, priority 2013, published 2016):

Tests used:
IGF-1 = conditions: applied to the skin; cited from earlier work
[1] = test system: EDN1, c-Kit, LIF, FGF2, HGF; assay: qRT-PCR of UVB-induced melanin synthesis-related molecule expression in skin; type: in vivo, mouse; conditions: 1.0% GDL feed 2 weeks; UVB 40 mJ/cm^2; 24 hours after irradiation
Description: (§1) HR-1 hairless mice (female, 8 weeks of age) (Japan SLC, Inc.) were bred in conditions of a temperature of 23±1° C., a humidity of 50±1%, and a lighting time of 7:00 to 19:00, and the mice freely ingested feed and water during the test period. […] After the two-week ingestion term, two sites (an irradiation site and a non-irradiation site) of 1.5 cm×1.0 cm were set in contiguity with each other on the back of the mouse under pentobarbital anesthesia, and irradiation was applied to the irradiation site in a UVB exposure dose of 1 mW/cm^2 for 40 seconds (40 mJ/cm^2). After 24 hours from the irradiation, blood was drawn from a heart, and the skin was taken from the UVB non-irradiation site and the irradiation site, from which RNA was extracted. A gene expression level of the molecule, shown below, was quantified from the extracted RNA according to qRT-PCR. As a TaqMan Gene Expression Assay (Applied Biosystems) probe, which specifically detects a target gene, were used Il-1b (Mm01336189_m1; IL-1b, Il-6 (Mm00446190_m1; IL-6), Gm-csf (Mm01290062_m1; GM-CSF), Tnf (Mm00443258_m1; TNFa), Ptgs2 (Mm01307329_m1; COX-2), Tlr3 (Mm01207404_m1; TLR3), Socs3 (Mm00545913_s1; SOCS3), Vcam1 (Mm01320970_m1; VCAM-1), Icam1 (Mm00516023_m1; ICAM-1), Sele (Mm00441278_m1; E-selectin), Edn1 (Mm00438656_m1; EDN1), Kit1 (Mm00442972_m1; SCF), C-kit (Mm00445212_m1; c-Kit), Lif (Mm00434761_m1; LIF), Fgf2 (Mm00433287_m1; FGF2), Hgf (Mm01135185_m1; HGF), Pcna (Mm00448100_g1; PCNA), Ccnd1 (Mm00432359_m1; CyclinD1), Mmp13 (Mm00439491_m1; MMP13), Mmp2 (Mm00439506_m1; MMP2), Mmp9 (Mm00442991_m1; MMP9), and Mmp14(Mm00485054_m1; MMP14). A target gene expression level was corrected by an expression level of an internal standard gene Rplp0 (Mm01974474_gH; RPLP0). An analysis was performed using 7500 Fast Real-Time PCR System (Applied Biosystems). The obtained values are expressed as Ave.±S.D., n=10, and as for a statistical significance test between many groups, a multiple comparison test according to Dunnett was performed (*p<0.05, **p<0.01 (vs Cont UVB+). • IL-1β: Interleukin-1β • IL-6: Interleukin-6 • GM-CSF: Granulocyte macrophage colony-stimulating factor • TNFα: Tumor necrosis factor α • COX-2: Cyclooxygenase-2 • TLR3: Toll-like receptor 3 • SOCS3: Suppressor of cytokine signaling 3 • VCAM-1: Vascular cell adhesion molecule-1 • ICAM-1: Intercellular adhesion molecule-1 • E-selectin • EDN1: Endothelin 1 • SCF: Stem cell factor (kit-ligand) • c-Kit • LIF: Leukemia inhibitory factor • FGF2: Fibroblast growth factor 2 (basic) • HGF: Hepatocyte growth factor • PCNA: Proliferating cell nuclear antigen • CyclinD1 • MMP13: Matrix metallopeptidase 13 (Collagenase 3) • MMP2: Matrix metallopeptidase 2 (Gelatinase A) • MMP9: Matrix metallopeptidase 9 (Gelatinase B) • MMP14: Matrix metallopeptidase 14 (membrane-inserted)

[2] = test system: VCAM-1, ICAM-1, E-selectin; assay: qRT-PCR of UVB-induced adhesion molecule expression in skin; type: in vivo, mouse; conditions: 1.0% GDL feed 2 weeks; UVB 40 mJ/cm^2; 24 hours after irradiation
Description: (§2) HR-1 hairless mice (female, 8 weeks of age) (Japan SLC, Inc.) were bred in conditions of a temperature of 23±1° C., a humidity of 50±1%, and a lighting time of 7:00 to 19:00, and the mice freely ingested feed and water during the test period. […] After the two-week ingestion term, two sites (an irradiation site and a non-irradiation site) of 1.5 cm×1.0 cm were set in contiguity with each other on the back of the mouse under pentobarbital anesthesia, and irradiation was applied to the irradiation site in a UVB exposure dose of 1 mW/cm^2 for 40 seconds (40 mJ/cm^2). After 24 hours from the irradiation, blood was drawn from a heart, and the skin was taken from the UVB non-irradiation site and the irradiation site, from which RNA was extracted. A gene expression level of the molecule, shown below, was quantified from the extracted RNA according to qRT-PCR. […]

healthy males = assay: Human crossover test, capsule including glucono-δ-lactone: MED, erythema, pigmentation after UVB; type: in vivo; conditions: 2000 mg glucono-δ-lactone per day orally
Description: A 4-week ingestion interval was provided between the first half and the last half of the crossover test. Glucono-δ-lactone, which is a test product, is a food additive (Fuso Chemical Co., Ltd.), and the intake was divided into twice a day for ingestion. After a 3-week ingestion term, irradiation was applied to an upper arm inside part with a UVB intensity of 1 mW/cm^2 for 7 different time periods, each at different sites (an irradiation area of 0.6 cm×1.0 cm per site). After 24 hours from the UVB irradiation, an MED value (the minimum erythema dose) was visually evaluated.
After the 3-week ingestion term, irradiationwith a radiation dose corresponding to 2 MED was applied to an area of 1.5 cm×1.5 cm on the upper arm inside part with a UVB intensity of 1 mW/cm^2. After 24 hours from the UVB irradiation, a ΔAa*value (erythema intensity: a difference from that in the non-irradiation site) was measured using a spectrophotometer. Further, after one week from the UVB irradiation, a ΔL*value (degree of pigmentation: a difference from that in the non-irradiation site) in each irradiation site wasmeasuredusing the spectrophotometer. The obtained values are expressed as Ave.±S.D., n=10, and as for a statistical significance test between the two groups, a paired t-test was performed (*p<0.05, **p<0.01).

HR-1 hairless mice = assay: Ultraviolet-induced erythema (a* value) and epidermal thickness after oral GDL mixed feed; type: in vivo, mouse; conditions: UVB 40 mJ/cm^2
Description: HR-1 hairless mice (female, 8 weeks of age) (Japan SLC, Inc.) were bred in conditions of a temperature of 23±1° C., a humidity of 50±1%, and a lighting time of 7:00 to 19:00, and the mice freely ingested feed and water during the test period. […] After the two-week ingestion term, two sites (an irradiation site and a non-irradiation site) of 1.5 cm×1.0 cm were set in contiguity with each other on the back of the mouse under pentobarbital anesthesia, and irradiation was applied to the irradiation site in a UVB exposure dose of 1 mW/cm^2 for 40 seconds (40 mJ/cm^2). A degree of erythema was evaluated after 2 days from the irradiation by a skin color (a*value) measurement using a spectrophotometer SE-6000 (Nippon Denshoku Industries Co., Ltd.). The a*value is an index showing redness of the skin color, and it can be said that the skin turns more red, namely, the more erythema are generated, as the a* value is increased.
After the measurement, blood was drawn from a heart under deep anesthesia, and the skin was taken from the UVB non-irradiation site and the irradiation site. […] As for an epidermal thickness, an average value of epidermal thicknesses at 15 arbitrary points per tissue was defined as the epidermal thickness of the tissue.

[3] = test system: IL-1β, IL-6, GM-CSF, TNFα, COX-2, TLR3, SOCS3; assay: qRT-PCR of UVB-induced inflammation-related gene expression in skin; type: in vivo, mouse; conditions: 1.0% GDL feed 2 weeks; UVB 40 mJ/cm^2; 24 hours after irradiation; corrected by Rplp0
Description: as §1

HRM-2 hairless mice = assay: Long-term repeated UVB irradiation (20 weeks): pigmentation, stratum corneum function, skin elasticity; type: in vivo, mouse; conditions: 2.0% GDL feed
Description: After a test feed was previously ingested for 3 weeks, UVB irradiation was applied to the UVB irradiation groups once per day over 20 weeks. As an ultraviolet resistance was obtained by continuous irradiation, a UVB irradiation intensity was increased from 40 mJ/cm^2 to 130 mJ/cm^2 in stages (irradiation in 0 to the first week: 40 mJ/cm^2, irradiation in the second to the forth weeks: 54 mJ/cm^2, irradiation in the fifth to the seventh weeks: 72 mJ/cm^2, irradiation in the eighth to the twelfth weeks: 108 mJ/cm^2, irradiation in the thirteenth to the fourteenth weeks: 120 mJ/cm^2, irradiation in the fifteenth to twentieth weeks: 130 mJ/cm^2). During the UVB irradiation term, the test feed was ingested. At the time of the grouping, and the irradiation 0th, 4th, 8th, 12th, 16th, and 20th weeks, the measurements of L*values using a spectrophotometer, TEWL values using a Tewameter, and stratum corneum moisture contents (the Capacitance value) using a Corneometer were performed. At the irradiation 20th week, skin physical parameters were measured using a Cutometer. The obtained values are expressed as Ave.±S.D., n=10-11, and the multiple comparison test was performed according to Tukey-Kramer.

PCNA, CyclinD1 = assay: qRT-PCR of UVB-induced proliferation-related molecule expression in skin; type: in vivo, mouse; conditions: 1.0% GDL feed 2 weeks; UVB 40 mJ/cm^2; 24 hours after irradiation
Description: as §2

MMP13, MMP2, MMP9, MMP14 = assay: qRT-PCR of UVB-induced dermal denaturation-related molecule expression in skin; type: in vivo, mouse; conditions: 1.0% GDL feed 2 weeks; UVB 40 mJ/cm^2; 24 hours after irradiation
Description: as §1, with “An analysis was performed using 7500 Fast Real-Time PCR System (Applied Biosystems).” left out

[4] = UVB once per day, 40 to 130 mJ/cm^2, after the UV irradiation 8th week or 12th week

O=C(O)[C@H](O)[C@@H](O)[C@H](O)[C@H](O)CO [gluconic acid]
promoted: IGF-1 secretion (IGF-1)

O=C1O[C@H](CO)[C@@H](O)[C@H](O)[C@H]1O [GDL, Glucono-δ-lactone]
significantly reduced: EDN1 expression [1] | FGF2 expression [1] | HGF expression [1] | LIF expression [1] | c-Kit expression [1]
significantly decreased: Δa*values (erythema intensity) compared to the placebo group (healthy males; 2 MED UVB, after 24 hours from the UVB irradiation) | AL* values (degree of pigmentation) compared to the placebo group (healthy males; 2 MED UVB, after one week from the UVB irradiation)
suppressed: ICAM-1 expression [2] | VCAM-1 expression [2] | reduction of the skin viscoelasticity (Uv/Ue) (HRM-2 hairless mice; UVB once per day over 20 weeks, Cutometer at irradiation 20th week) | decrease of L*value caused by the UVB irradiation (pigmentation) (HRM-2 hairless mice; [4]) | decrease of stratum corneum moisture content (the Capacitance value) caused by the UVB irradiation (HRM-2 hairless mice; [4]) | CyclinD1 expression (PCNA, CyclinD1) | PCNA expression (PCNA, CyclinD1) | collagenase (MMP13) expression (MMP13, MMP2, MMP9, MMP14) | gelatinase MMP2 expression (MMP13, MMP2, MMP9, MMP14) | gelatinase MMP9 expression (MMP13, MMP2, MMP9, MMP14) | membrane-associated MMP (MMP14) expression (MMP13, MMP2, MMP9, MMP14)
significantly suppressed: increase of epidermal thickness in the irradiation sites compared to control group (HR-1 hairless mice; GDL groups (0.5%, 1%), feed for 2 weeks, HE stain) | COX-2 gene expression in irradiation sites vs control [3] | GM-CSF gene expression in irradiation sites vs control [3] | IL-1β gene expression in irradiation sites vs control [3] | IL-6 gene expression in irradiation sites vs control [3] | SOCS3 gene expression in irradiation sites vs control [3] | TLR3 gene expression in irradiation sites vs control [3] | TNFα gene expression in irradiation sites vs control [3]
significantly high: MED values (minimum erythema dose) compared to the placebo group (healthy males; after 3-week ingestion, 24 hours after UVB, upper arm inside)
concentration-dependently suppressed: increase of a*values due to the UVB irradiation (erythema) (HR-1 hairless mice; 0.5% and 1% GDL mixed feed for 2 weeks, 2 days after irradiation)
significant suppression: a* value in the irradiation sites compared to the irradiation sites in the control group (HR-1 hairless mice; 1% GDL group, feed for 2 weeks, 2 days after irradiation)
